Reference: PubChem BioAssay (NCI)
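Where inhibition never reached the appropriate level, the endpoint shown equals the highest concentration tested. Otherwise, values were interpolated linearly from a five-concentration, 48-hour dose response in 96-well plates. TGI denotes the concentration required for complete inhibition of growth.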

Assays:
Assay in all cases: growth of human tumour cells (NCI), 48 h
HCC-2998 colon = test system: HCC-2998 colon
UACC-257 melanoma = test system: UACC-257 melanoma
HL-60(TB) leukemia = test system: HL-60(TB) leukemia
RXF 393 renal = test system: RXF 393 renal
HOP-62 NSCLC = test system: HOP-62 NSCLC
U251 CNS = test system: U251 CNS
OVCAR-4 ovarian = test system: OVCAR-4 ovarian
MALME-3M melanoma = test system: MALME-3M melanoma
SK-MEL-2 melanoma = test system: SK-MEL-2 melanoma
SK-MEL-5 melanoma = test system: SK-MEL-5 melanoma
UO-31 renal = test system: UO-31 renal
OVCAR-5 ovarian = test system: OVCAR-5 ovarian
NCI-H226 lung = test system: NCI-H226 lung
HS 578T breast = test system: HS 578T breast
SNB-19 CNS = test system: SNB-19 CNS
A549 NSCLC = test system: A549 NSCLC
CAKI-1 renal = test system: CAKI-1 renal
HT29 colon = test system: HT29 colon
NCI-H460 lung = test system: NCI-H460 lung
KM12 colon = test system: KM12 colon
MOLT-4 leukemia = test system: MOLT-4 leukemia
SF-539 CNS = test system: SF-539 CNS
HOP-92 NSCLC = test system: HOP-92 NSCLC
COLO 205 colon = test system: COLO 205 colon
OVCAR-8 ovarian = test system: OVCAR-8 ovarian
K-562 leukemia = test system: K-562 leukemia
EKVX NSCLC = test system: EKVX NSCLC
SK-OV-3 ovarian = test system: SK-OV-3 ovarian
A498 renal = test system: A498 renal
MDA-MB-231 breast = test system: MDA-MB-231 breast
SN12C renal = test system: SN12C renal
SK-MEL-28 melanoma = test system: SK-MEL-28 melanoma
RPMI-8226 leukemia = test system: RPMI-8226 leukemia
HCT-116 colon = test system: HCT-116 colon
OVCAR-3 ovarian = test system: OVCAR-3 ovarian
DU-145 prostate = test system: DU-145 prostate
SNB-75 CNS = test system: SNB-75 CNS
SF-268 CNS = test system: SF-268 CNS
TK-10 renal = test system: TK-10 renal
M14 melanoma = test system: M14 melanoma
SW-620 colon = test system: SW-620 colon
ACHN renal = test system: ACHN renal
NCI-H23 lung = test system: NCI-H23 lung
MCF7 breast = test system: MCF7 breast
CCRF-CEM leukemia = test system: CCRF-CEM leukemia
MDA-MB-435 = test system: MDA-MB-435
BT-549 breast = test system: BT-549 breast
SF-295 CNS = test system: SF-295 CNS
NCI/ADR-RES ovarian = test system: NCI/ADR-RES ovarian
786-0 renal = test system: 786-0 renal
NCI-H522 lung = test system: NCI-H522 lung
UACC-62 melanoma = test system: UACC-62 melanoma
MDA-N = test system: MDA-N
PC-3 prostate = test system: PC-3 prostate
HCT-15 colon = test system: HCT-15 colon
T-47D breast = test system: T-47D breast
IGROV1 ovarian = test system: IGROV1 ovarian

Measured: TGI

Cc1ccc2c3c4c(ccc13)C(C)(C)OC4=C(C(C)C)C2=O
39.2 µM: HT29 colon
26.8 µM: OVCAR-3 ovarian
30.7 µM: SK-MEL-2 melanoma
27.6 µM: PC-3 prostate
29 µM: HOP-62 NSCLC
27.9 µM: NCI-H226 lung
55.2 µM: HS 578T breast
> 100 µM: all other assays above
